Laboratory results: ChEMBL document CHEMBL4665762, “Conosiligins A-D, Ring-Rearranged Tremulane Sesquiterpenoids from Conocybe siliginea” (J Nat Prod, 2020)

Assay: Inhibition of Con A-induced BALB/c mouse T cell proliferation after 48 hrs by [3H]-thymidine incorporation assay
Assay type: functional, tissue-based

Structure (SMILES)	IC50 [µM]
C[C@@H]1C(=O)C2=C(COC2=O)[C@@H]2C[C@@](C)(CO)C[C@H]12	12.3
C[C@@]12CO[C@]3(C1)c1coc(=O)cc1O[C@H](CO)[C@H]3C2	6.6
